Measured values as given in patent US20120108431A1, “PLANT GROWTH REGULATOR ADDITIVE” (TAMINCO, NAAMLOZE VENNOOTSCHAP, priority 2009, published 2012).

Key:
Format in all cases: in vivo
[1] = test system: Winter wheat cv Limerick; test: Winter wheat Trial 3, pot trial, sprayed at GS23; conditions: for Total No of Shoots/Plant at GS33 / Total No of “Large” Shoots/Plant at GS33 / Rooting (0-9) + 28 Days / Final Seed Yield + % / Rooting + % / Total No of Shoots/Plant + % / Total No of “Large” Shoots/Plant + %: winter wheat pots; for Rooting (0-9) + 28 Days: score 0-9, 28 days after spraying; for Final Seed Yield + % / Rooting + % / Total No of Shoots/Plant + % / Total No of “Large” Shoots/Plant + %: increase over the line given as 0 (untreated or growth regulator alone); for Final Seed Yield at Harvest (g per pot): winter wheat, eight plants per pot
Description: The applied concentration of chemical can vary widely depending on the water volume applied to plants as well as other factors such as plant age and size, and plant sensitivity to the product. […] The rate of other components such as spreaders and stickers can be 50-200 ml per ha. C. […] Sprayed: 10 June, at GS23 (early-mid tillering). Plants were scored/assessed at GS33 on 12 July, with other measurements at crop maturity.

[2] = test system: Navy bean cv Primel; test: Navy bean Trial 2, pot trial, foliar spray at V2-V3; conditions: for Final Seed Yield at Harvest (g per pot): one plant per pot; for Rooting (0-9) + 28 Days: score 0-9, 28 days after spraying
[3] = test system: Soybean; test: Soybean Trial 1, pot trial, foliar spray at V2-V3; conditions: for Final Seed Yield at Harvest (g per pot): one plant per pot; for Rooting (0-9) + 28 Days: score 0-9, 28 days after spraying
[4] = navy bean, increase over the line given as 0 (untreated or growth regulator alone)
[5] = soybean, increase over the line given as 0 (untreated or growth regulator alone)

Structure (SMILES): CC(=O)Nc1ccc(O)cc1 [AC, N-(4-hydroxypheyl)acetamide]
- Total No of Shoots/Plant at GS33 [1]: 3.0
- Total No of “Large” Shoots/Plant at GS33 [1]: 2.0
- Rooting (0-9) + 28 Days [1]: 5.4
- Final Seed Yield + % [1]: 0%
- Rooting + % [1]: 0%
- Total No of Shoots/Plant + % [1]: 0%
- Total No of “Large” Shoots/Plant + % [1]: 0%
- Final Seed Yield at Harvest (g per pot) [1]: 33.9 g per pot
- No of Large Pod Bearing Branches/Plant at Harvest ([2]; navy bean): 1.0
- Final Seed Yield at Harvest (g per pot) ([2]; navy bean): 52.4 g per pot
- Plant Biomass Score (0-9) at Harvest ([2]; navy bean): 5.2
- Rooting (0-9) + 28 Days ([2]; navy bean): 7.0
- Final Seed Yield + % [2, 4]: 8%
- No of Large Pod Bearing Branches/Plant + % [2, 4]: 0%
- Plant Biomass Score + % [2, 4]: 0%
- Rooting + % [2, 4]: 0%
- No of Large Pod Bearing Branches/Plant at Harvest ([3]; soybean): 1.0
- Final Seed Yield at Harvest (g per pot) ([3]; soybean): 34.0 g per pot
- Plant Biomass Score (0-9) at Harvest ([3]; soybean): 5.2
- Rooting (0-9) + 28 Days ([3]; soybean): 4.2
- Final Seed Yield + % [3, 5]: 2%
- No of Large Pod Bearing Branches/Plant + % [3, 5]: 0%
- Plant Biomass Score + % [3, 5]: 0%
- Rooting + % [3, 5]: 0%

Structure (SMILES): Nc1ccccc1C(=O)O [AN, anthranilic acid]
- Total No of Shoots/Plant at GS33 [1]: 3.0
- Total No of “Large” Shoots/Plant at GS33 [1]: 2.0
- Rooting (0-9) + 28 Days [1]: 5.4
- Final Seed Yield + % [1]: 0%
- Rooting + % [1]: 0%
- Total No of Shoots/Plant + % [1]: 0%
- Total No of “Large” Shoots/Plant + % [1]: 0%
- Final Seed Yield at Harvest (g per pot) [1]: 33.6 g per pot
- Final Seed Yield + % ([2]; in vivo): 7%
- Rooting + % ([2]; in vivo): 3%
- No of Large Pod Bearing Branches/Plant at Harvest ([2]; navy bean): 1.0
- Final Seed Yield at Harvest (g per pot) ([2]; navy bean): 52.0 g per pot
- Plant Biomass Score (0-9) at Harvest ([2]; navy bean): 5.2
- Rooting (0-9) + 28 Days ([2]; navy bean): 7.2
- No of Large Pod Bearing Branches/Plant + % [2, 4]: 0%
- Plant Biomass Score + % [2, 4]: 0%
- Final Seed Yield + % ([3]; in vivo): 5%
- Rooting + % ([3]; in vivo): 2%
- No of Large Pod Bearing Branches/Plant at Harvest ([3]; soybean): 1.0
- Final Seed Yield at Harvest (g per pot) ([3]; soybean): 34.8 g per pot
- Plant Biomass Score (0-9) at Harvest ([3]; soybean): 5.2
- Rooting (0-9) + 28 Days ([3]; soybean): 4.3
- No of Large Pod Bearing Branches/Plant + % [3, 5]: 0%
- Plant Biomass Score + % [3, 5]: 0%

Structure (SMILES): CC1(C)CCC(Cc2ccc(Cl)cc2)C1(O)Cn1cncn1 (stereo not drawn) [MET2, Metconazole]
- Total No of Shoots/Plant at GS33 [1]: 3.8
- Total No of “Large” Shoots/Plant at GS33 [1]: 2.6
- Rooting (0-9) + 28 Days [1]: 6.0
- Final Seed Yield + % [1]: 0%
- Rooting + % [1]: 0%
- Total No of Shoots/Plant + % [1]: 0%
- Total No of “Large” Shoots/Plant + % [1]: 0%
- Final Seed Yield at Harvest (g per pot) [1]: 36.0 g per pot
- No of Large Pod Bearing Branches/Plant at Harvest ([2]; navy bean): 1.2
- Final Seed Yield at Harvest (g per pot) ([2]; navy bean): 57.4 g per pot
- Plant Biomass Score (0-9) at Harvest ([2]; navy bean): 5.1
- Rooting (0-9) + 28 Days ([2]; navy bean): 7.0
- Final Seed Yield + % [2, 4]: 0%
- No of Large Pod Bearing Branches/Plant + % [2, 4]: 0%
- Plant Biomass Score + % [2, 4]: 0%
- Rooting + % [2, 4]: 0%
- No of Large Pod Bearing Branches/Plant at Harvest ([3]; soybean): 1.0
- Final Seed Yield at Harvest (g per pot) ([3]; soybean): 36.6 g per pot
- Plant Biomass Score (0-9) at Harvest ([3]; soybean): 6.0
- Rooting (0-9) + 28 Days ([3]; soybean): 5.2
- Final Seed Yield + % [3, 5]: 0%
- No of Large Pod Bearing Branches/Plant + % [3, 5]: 0%
- Plant Biomass Score + % [3, 5]: 0%
- Rooting + % [3, 5]: 0%

Structure (SMILES): CC1(C)CCC(Cc2ccc(Cl)cc2)C1(O)Cn1cncn1 (stereo not drawn) [MET, Metconazole]
- Total No of Shoots/Plant at GS33 [1]: 3.8
- Total No of “Large” Shoots/Plant at GS33 [1]: 2.6
- Rooting (0-9) + 28 Days [1]: 6.0
- Final Seed Yield + % [1]: 0%
- Rooting + % [1]: 0%
- Total No of Shoots/Plant + % [1]: 0%
- Total No of “Large” Shoots/Plant + % [1]: 0%
- Final Seed Yield at Harvest (g per pot) [1]: 36.2 g per pot
- No of Large Pod Bearing Branches/Plant at Harvest ([2]; navy bean): 1.2
- Final Seed Yield at Harvest (g per pot) ([2]; navy bean): 57.2 g per pot
- Plant Biomass Score (0-9) at Harvest ([2]; navy bean): 5.2
- Rooting (0-9) + 28 Days ([2]; navy bean): 7.0
- Final Seed Yield + % [2, 4]: 0%
- No of Large Pod Bearing Branches/Plant + % [2, 4]: 0%
- Plant Biomass Score + % [2, 4]: 0%
- Rooting + % [2, 4]: 0%
- No of Large Pod Bearing Branches/Plant at Harvest ([3]; soybean): 1.1
- Final Seed Yield at Harvest (g per pot) ([3]; soybean): 36.6 g per pot
- Plant Biomass Score (0-9) at Harvest ([3]; soybean): 6.0
- Rooting (0-9) + 28 Days ([3]; soybean): 5.2
- Final Seed Yield + % [3, 5]: 0%
- No of Large Pod Bearing Branches/Plant + % [3, 5]: 0%
- Plant Biomass Score + % [3, 5]: 0%
- Rooting + % [3, 5]: 0%

Structure (SMILES): CCOC(=O)C1CC(=O)C(=C(O)C2CC2)C(=O)C1 (stereo not drawn) [MOD, Trinexapac-ethyl]
- Total No of Shoots/Plant at GS33 [1]: 3.8
- Total No of “Large” Shoots/Plant at GS33 [1]: 2.6
- Rooting (0-9) + 28 Days [1]: 6.4
- Final Seed Yield + % [1]: 0%
- Rooting + % [1]: 0%
- Total No of Shoots/Plant + % [1]: 0%
- Total No of “Large” Shoots/Plant + % [1]: 0%
- Final Seed Yield at Harvest (g per pot) [1]: 35.4 g per pot
- No of Large Pod Bearing Branches/Plant at Harvest ([2]; navy bean): 1.2
- Final Seed Yield at Harvest (g per pot) ([2]; navy bean): 56.1 g per pot
- Plant Biomass Score (0-9) at Harvest ([2]; navy bean): 5.6
- Rooting (0-9) + 28 Days ([2]; navy bean): 7.2
- Final Seed Yield + % [2, 4]: 0%
- No of Large Pod Bearing Branches/Plant + % [2, 4]: 0%
- Plant Biomass Score + % [2, 4]: 0%
- Rooting + % [2, 4]: 0%
- No of Large Pod Bearing Branches/Plant at Harvest ([3]; soybean): 1.0
- Final Seed Yield at Harvest (g per pot) ([3]; soybean): 36.2 g per pot
- Plant Biomass Score (0-9) at Harvest ([3]; soybean): 6.2
- Rooting (0-9) + 28 Days ([3]; soybean): 4.4
- Final Seed Yield + % [3, 5]: 0%
- No of Large Pod Bearing Branches/Plant + % [3, 5]: 0%
- Plant Biomass Score + % [3, 5]: 0%
- Rooting + % [3, 5]: 0%
